ChEMBL document CHEMBL1201861, “Genomics of Drug Sensitity in Cancer screening data, Wellcome Trust Sanger Institute”

Legend:
Experiment in all cases: cells
LB2518-MEL = assay type: functional, cell-based; conditions: Homo sapiens;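 note: growth inhibition of human LB2518-MEL cells, measured with a cell viability assay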
TE-12 = assay type: functional, cell-based, Homo sapiens; conditions: Homo sapiens, TE-12;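 note: growth inhibition of TE-12 cells, read out by a cell viability assay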
Description: SANGER: Inhibition of human TE-12 cell growth in a cell viability assay.

HDLM-2 = assay type: functional, cell-based, Homo sapiens; conditions: Homo sapiens, HDLM-2;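 note: cell viability assay measuring suppression of HDLM-2 proliferation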
Description: SANGER: Inhibition of human HDLM-2 cell growth in a cell viability assay.

GT3TKB = assay type: functional, cell-based, Homo sapiens; conditions: Homo sapiens, GT3TKB;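 note: growth inhibition of the cell line, read out with a cell viability assay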
Description: SANGER: Inhibition of human GT3TKB cell growth in a cell viability assay.

A3-KAW = assay type: functional, cell-based, Homo sapiens; conditions: Homo sapiens, A3-KAW;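 note: growth inhibition of human A3-KAW cells, read out with a cell viability assay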
Description: SANGER: Inhibition of human A3-KAW cell growth in a cell viability assay.

TE-10 = assay type: functional, cell-based, Homo sapiens; conditions: Homo sapiens, TE-10;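 note: growth inhibition of TE-10 cells, measured by a cell viability assay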
Description: SANGER: Inhibition of human TE-10 cell growth in a cell viability assay.

NCI-H209 = assay type: functional, cell-based, Homo sapiens; conditions: Homo sapiens, NCI-H209;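 note: growth inhibition of human NCI-H209 cells, measured by a cell viability assay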
Description: SANGER: Inhibition of human NCI-H209 cell growth in a cell viability assay.

NCI-H1395 = assay type: functional, cell-based, Homo sapiens; conditions: Homo sapiens, NCI-H1395;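 note: cell viability assay read-out quantifying reduced proliferation of human NCI-H1395 cells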
Description: SANGER: Inhibition of human NCI-H1395 cell growth in a cell viability assay.

COLO-668 = assay type: functional, cell-based, Homo sapiens; conditions: Homo sapiens, COLO-668
Description: SANGER: Inhibition of human COLO-668 cell growth in a cell viability assay.

GB-1 = assay type: functional, cell-based, Homo sapiens; conditions: Homo sapiens, GB-1;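 note: growth of GB-1 cells judged by a viability assay, IC50 marks the concentration inhibiting growth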
Description: SANGER: Inhibition of human GB-1 cell growth in a cell viability assay.

MS-1 = assay type: functional, cell-based, Homo sapiens; conditions: Homo sapiens, MS-1;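 note: growth inhibition of MS-1 cells, read out by cell viability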
Description: SANGER: Inhibition of human MS-1 cell growth in a cell viability assay.

LC-2-ad = assay type: functional, cell-based, Homo sapiens; conditions: Homo sapiens, LC-2-ad;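 note: growth inhibition of human LC-2-ad cells, read out with a cell viability assay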
Description: SANGER: Inhibition of human LC-2-ad cell growth in a cell viability assay.

NTERA-2-cl-D1 = assay type: functional, cell-based, Homo sapiens; conditions: Homo sapiens, NTERA-2-cl-D1;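 note: inhibition of cell growth, measured with a cell viability assay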
Description: SANGER: Inhibition of human NTERA-S-cl-D1 cell growth in a cell viability assay.

MV4-11 = assay type: functional, cell-based, Homo sapiens, MV-4-11; conditions: Homo sapiens, MV4-11;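 note: cell viability readout measuring growth inhibition of human MV-4-11 cells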
Description: SANGER: Inhibition of human MV-4-11 cell growth in a cell viability assay.

KY821 = assay type: functional, cell-based, Homo sapiens; conditions: Homo sapiens, KY821;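 note: growth inhibition of human KY821 cells, read out by a cell viability assay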
Description: SANGER: Inhibition of human KY821 cell growth in a cell viability assay.

OS-RC-2 = assay type: functional, cell-based, Homo sapiens; conditions: Homo sapiens, OS-RC-2;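 note: growth inhibition of human OS-RC-2 cells, measured by a cell viability assay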
Description: SANGER: Inhibition of human OS-RC-2 cell growth in a cell viability assay.

A4-Fuk = assay type: functional, cell-based, Homo sapiens; conditions: Homo sapiens, A4-Fuk;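 note: growth inhibition of A4-Fuk cells, read out by a cell viability assay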
Description: SANGER: Inhibition of human A4-Fuk cell growth in a cell viability assay.

NCI-H1299 = assay type: functional, cell-based; conditions: Homo sapiens;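 note: growth inhibition of human NCI-H1299 cells, read out by a cell viability assay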
KINGS-1 = assay type: functional, cell-based, Homo sapiens; conditions: Homo sapiens, KINGS-1;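 note: cell viability assay measuring suppression of KINGS-1 cell growth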
Description: SANGER: Inhibition of human KINGS-1 cell growth in a cell viability assay.

BB65-RCC = assay type: functional, cell-based, Homo sapiens; conditions: Homo sapiens, BB65-RCC;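 note: growth inhibition of the cell line, measured with a cell viability assay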
Description: SANGER: Inhibition of human BB65-RCC cell growth in a cell viability assay.

KARPAS-299 = assay type: functional, cell-based, Homo sapiens; conditions: Homo sapiens, KARPAS-299
Description: SANGER: Inhibition of human KARPAS-299 cell growth in a cell viability assay.

OCUB-M = assay type: functional, cell-based; conditions: Homo sapiens;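 note: growth inhibition of the cancer cell line, read out through a cell viability assay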
Description: SANGER: Inhibition of human OCUB-M cell growth in a cell viability assay.

LB2241-RCC = assay type: functional, cell-based, Homo sapiens; conditions: Homo sapiens, LB2241-RCC;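 note: cell viability assay measuring how strongly the cultured human renal carcinoma line is prevented from growing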
HOP-62 = assay type: functional, cell-based, Homo sapiens; conditions: Homo sapiens, HOP-62;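 note: cell growth inhibition determined with a viability assay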
Description: SANGER: Inhibition of human HOP-62 cell growth in a cell viability assay.

MHH-NB-11 = assay type: functional, cell-based, Homo sapiens; conditions: Homo sapiens, MHH-NB-11;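 note: growth inhibition of human MHH-NB-11 cells, read out by a cell viability assay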
Description: SANGER: Inhibition of human MHH-NB-11 cell growth in a cell viability assay.

SNB-75 = assay type: functional, cell-based, Homo sapiens; conditions: Homo sapiens, SNB-75;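 note: cell viability assay measuring growth inhibition of human SNB-75 cells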
Description: SANGER: Inhibition of human SNB75 cell growth in a cell viability assay.

LS-123 = assay type: functional, cell-based, Homo sapiens; conditions: Homo sapiens, LS-123
LU-134-A = assay type: functional, cell-based, Homo sapiens; conditions: Homo sapiens, LU-134-A
Description: SANGER: Inhibition of human LU-134-A cell growth in a cell viability assay.

LB1047-RCC = assay type: functional, cell-based, Homo sapiens; conditions: Homo sapiens, LB1047-RCC;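 note: inhibition of cell growth, determined with a cell viability assay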
Description: SANGER: Inhibition of human LB1047-RCC cell growth in a cell viability assay.

MHH-PREB-1 = assay type: functional, cell-based, Homo sapiens; conditions: Homo sapiens, MHH-PREB-1;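 note: cell viability assay measuring inhibition of proliferation of human MHH-PREB-1 cells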
Description: SANGER: Inhibition of human MHH-PREB-1 cell growth in a cell viability assay.

NCI-H747 = assay type: functional, cell-based, Homo sapiens; conditions: Homo sapiens, NCI-H747;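 note: growth inhibition of human NCI-H747 cells, read out by a cell viability assay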
Description: SANGER: Inhibition of human NCI-H747 cell growth in a cell viability assay.

HT = assay type: functional, cell-based, Homo sapiens; conditions: Homo sapiens, HT
CW-2 = assay type: functional, cell-based, Homo sapiens; conditions: Homo sapiens, CW-2;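 note: growth inhibition of CW-2 cells, read out by a cell viability assay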
Description: SANGER: Inhibition of human CW-2 cell growth in a cell viability assay.

SW 954 = assay type: functional, cell-based, Homo sapiens; conditions: Homo sapiens, SW 954;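 note: growth inhibition of SW954 human cancer cells, read out as cell viability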
Description: SANGER: Inhibition of human SW954 cell growth in a cell viability assay.

SK-MEL-2 = assay type: functional, cell-based, Homo sapiens; conditions: Homo sapiens, SK-MEL-2;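 note: growth inhibition of human SK-MEL-2 cells measured with a cell viability assay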
Description: SANGER: Inhibition of human SK-MEL-2 cell growth in a cell viability assay.

GCIY = assay type: functional, cell-based, Homo sapiens; conditions: Homo sapiens, GCIY;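 note: growth inhibition of the human GCIY cell line, read out by a cell viability assay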
Description: SANGER: Inhibition of human GCIY cell growth in a cell viability assay.

NCI-H1355 = assay type: functional, cell-based, Homo sapiens; conditions: Homo sapiens, NCI-H1355;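 note: growth inhibition of human NCI-H1355 cells, read out by a cell viability assay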
Description: SANGER: Inhibition of human NCI-H1355 cell growth in a cell viability assay.

JVM-3 = assay type: functional, cell-based, Homo sapiens; conditions: Homo sapiens, JVM-3;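 note: growth inhibition of human JVM-3 cells, read out with a cell viability assay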
Description: SANGER: Inhibition of human JVM-3 cell growth in a cell viability assay.

NB6 = assay type: functional, cell-based, Homo sapiens; conditions: Homo sapiens, NB6;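 note: growth inhibition of NB6 cells, read out by a cell viability assay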
Description: SANGER: Inhibition of human NB6 cell growth in a cell viability assay.

no-11 = assay type: functional, cell-based, Homo sapiens; conditions: Homo sapiens;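 note: growth inhibition of human NO-11 cells, read out with a cell viability assay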
Description: SANGER: Inhibition of human no-11 cell growth in a cell viability assay.

KNS-81-FD = assay type: functional, cell-based, Homo sapiens; conditions: Homo sapiens, KNS-81-FD;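 note: growth inhibition of KNS-81-FD cells, read out with a cell viability assay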
Description: SANGER: Inhibition of human KNS-81-FD cell growth in a cell viability assay.

EW-11 = assay type: functional, cell-based, Homo sapiens; conditions: Homo sapiens, EW-11;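 note: growth inhibition of human EW-11 cells, measured with a cell viability assay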
Description: SANGER: Inhibition of human EW-11 cell growth in a cell viability assay.

MEG-01 = assay type: functional, cell-based, Homo sapiens; conditions: Homo sapiens, MEG-01;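 note: growth inhibition of MEG-01 cells, read out by a cell viability assay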
Description: SANGER: Inhibition of human MEG-01 cell growth in a cell viability assay.

Calu-6 = assay type: functional, cell-based, Homo sapiens; conditions: Homo sapiens, Calu-6;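 note: growth of human Calu-6 cells, read out by a cell viability assay, IC50 marking inhibition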
Description: SANGER: Inhibition of human Calu-6 cell growth in a cell viability assay.

8-MG-BA = assay type: functional, cell-based, Homo sapiens; conditions: Homo sapiens, 8-MG-BA;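 note: growth inhibition of 8-MG-BA cells, read out with a cell viability assay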
Description: SANGER: Inhibition of human 8-MG-BA cell growth in a cell viability assay.

OCI-AML2 = assay type: functional, cell-based, Homo sapiens; conditions: Homo sapiens, OCI-AML2;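 note: growth inhibition of OCI-AML2 cells, read out with a cell viability assay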
BB30-HNC = assay type: functional, cell-based, Homo sapiens; conditions: Homo sapiens, BB30-HNC;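 note: growth inhibition of the cultured cell line, read out by a cell viability assay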
Description: SANGER: Inhibition of human BB30-HNC cell growth in a cell viability assay.

`C[C@@H](Oc1cc(-c2cnn(C3CCNCC3)c2)cnc1N)c1c(Cl)ccc(F)c1Cl` [CRIZOTINIB] gave an IC50 (LB2518-MEL) of over 2000 nM, an IC50 (TE-12) of over 2000 nM and an IC50 (HDLM-2) of over 2000 nM. It also gave an IC50 (GT3TKB) of over 2000 nM, an IC50 (A3-KAW) of over 2000 nM and an IC50 (TE-10) of over 2000 nM. For the same molecule, the IC50 (NCI-H209) was over 2000 nM, the IC50 (NCI-H1395) was over 2000 nM and the IC50 (COLO-668) was over 2000 nM. For the same molecule, the IC50 (GB-1) was over 2000 nM, the IC50 (MS-1) was over 2000 nM and the IC50 (LC-2-ad) was over 2000 nM. The IC50 (NTERA-2-cl-D1) was over 2000 nM, the IC50 (MV4-11) was over 2000 nM and the IC50 (KY821) was over 2000 nM. It also gave an IC50 (OS-RC-2) of over 2000 nM, an IC50 (A4-Fuk) of over 2000 nM and an IC50 (NCI-H1299) of over 2000 nM. For the same molecule, the IC50 (KINGS-1) was 750 nM, the IC50 (BB65-RCC) was over 2000 nM and the IC50 (KARPAS-299) was 1410 nM. The IC50 (OCUB-M) was over 2000 nM, the IC50 (LB2241-RCC) was over 2000 nM and the IC50 (HOP-62) was over 2000 nM. The IC50 (MHH-NB-11) was over 2000 nM, the IC50 (SNB-75) was over 2000 nM and the IC50 (LS-123) was over 2000 nM. For the same molecule, the IC50 (LU-134-A) was over 2000 nM, the IC50 (LB1047-RCC) was over 2000 nM and the IC50 (MHH-PREB-1) was over 2000 nM. It also gave an IC50 (NCI-H747) of over 2000 nM, an IC50 (HT) of over 2000 nM and an IC50 (CW-2) of over 2000 nM. The IC50 (SW 954) was over 2000 nM, the IC50 (SK-MEL-2) was over 2000 nM and the IC50 (GCIY) was over 2000 nM. The IC50 (NCI-H1355) was over 2000 nM, the IC50 (JVM-3) was over 2000 nM and the IC50 (NB6) was over 2000 nM. For the same molecule, the IC50 (no-11) was over 2000 nM, the IC50 (KNS-81-FD) was over 2000 nM and the IC50 (EW-11) was over 2000 nM. It also gave an IC50 (MEG-01) of 858 nM, an IC50 (Calu-6) of over 2000 nM and an IC50 (8-MG-BA) of over 2000 nM. For the same molecule, the IC50 (OCI-AML2) was over 2000 nM and the IC50 (BB30-HNC) was over 2000 nM.
